According to patent US20220088144A1, “SGLT-2 INHIBITORS OR IL-1R ANTAGONISTS FOR REDUCTION OF HYPOGLYCAEMIA AFTER BARIATRIC SURGERY” (UNIVERSITÄTSSPITAL BASEL, priority 2019, published 2022):

What was measured:
Format in all cases: in vivo, human
[1] = tested on: patients after bariatric surgery with post-prandial hypoglycaemia; assay: Clinical symptom scores during mixed-meal test (Edinburgh Hypoglycemia Scale, Sigstad Score, Stanford Sleepiness Scale); set-up: key to Edinburgh Hypoglycemia Scale score, timepoint 180 min / Edinburgh Hypoglycemia Scale score, timepoint −120 min / Edinburgh Hypoglycemia Scale score, timepoint 0 min / Edinburgh Hypoglycemia Scale score, timepoint 60 min / Edinburgh Hypoglycemia Scale score, timepoint 90 min / Edinburgh Hypoglycemia Scale score, timepoint 120 min / Edinburgh Hypoglycemia Scale score, timepoint 150 min: 0 (=no symptoms); 3 (=severe symptoms); a = sweating; b = palpitations; c = shaking; d = hunger; e = confusion; f = drowsiness; g = odd behaviour; h = speech difficulty; i = incoordination; conditions: for Edinburgh Hypoglycemia Scale score, timepoint 0 min / Edinburgh Hypoglycemia Scale score, timepoint 60 min / Edinburgh Hypoglycemia Scale score, timepoint 90 min / Edinburgh Hypoglycemia Scale score, timepoint 120 min / Edinburgh Hypoglycemia Scale score, timepoint 150 min / Edinburgh Hypoglycemia Scale score, timepoint 180 min / Edinburgh Hypoglycemia Scale score, timepoint −120 min: per patient and visit; for Edinburgh Hypoglycemia Scale score, timepoint 60 min: 60 min after meal; for Edinburgh Hypoglycemia Scale score, timepoint 90 min: 90 min after meal; for Edinburgh Hypoglycemia Scale score, timepoint 120 min: 120 min after meal; for Edinburgh Hypoglycemia Scale score, timepoint 150 min: 150 min after meal; for Edinburgh Hypoglycemia Scale score, timepoint 180 min: 180 min after meal; for model coefficient (treatment vs placebo) for occurrence of Edinburgh composite score ≥6: headed FIG. 11a, generalized linear additive mixed effect model; for Edinburgh Hypoglycemia Scale score, timepoint −120 min: −120 min relative to meal (time of oral dosing)
Protocol: (§1) The primary outcome in this study is the change of post-prandial hypoglycaemia after treatment with empagliflozin (Jardiance®) or anakinra (Kineret®) compared to placebo. This was assessed by blood glucose measurements (capillary POCT measurements and plasma glucose) as well as clinical scoring systems (Edinburgh Hypoglycaemia Scale (Deary et al. Diabetologia 1993; 36(8): 771-7), Mixed-Meal-Test (Wiesli et al. Eur J Endocrinol 2005; 152(4): 605-10.) Stanford sleepiness scale).
(§2) The secondary objectives are to evaluate whether treatment of empagliflozin (Jardiance®) or anakinra (Kineret®) have effects on the following aspects: • level of insulin secretion and sensitivity • levels of GLP-1, glucagon and C-peptide • levels of IL-6; IL-1Ra, CRP • scores in Edinburgh Hypoglycaemia Scale (clinical score for assessment of hypoglycemia), Stanford Sleepiness Scale (clinical score of assessment of sleepiness) as well as Sigstad Score (clinical score for early and late dumping symptoms) • Length of time and amount of glucose needed for restoring normoglycemia.
(§3) Statistical analysis for this proof-of-concept translational clinical trial was done on a per-protocol basis. Sample size was based on practical considerations due to the lack of pre-existing data for this intervention. All analyses are to be considered exploratory. Analysis of continuous dependent outcome variables (e.g. glucose, insulin, c-peptide, GLP-1, glucagon, insulin secretion index and sensitivity, IL-1p, IL-6, IL-8, TNFα), was done using linear mixed effect models fit by maximum likelihood. Analysis of the binary dependent outcome variables occurrence of severe hypoglycemia requiring glucose rescue and occurrence of composite score ≥6 on the Edinburgh Hypoglycemia Scale was done using a generalized linear additive mixed effect model fit by maximum likelihood (Laplace approximation). Models were fit including fixed effects for categorical variables such as gender, the occurrence of hypoglycemia, treatment and in case of values measured in cell culture supernatants, activation status (non-stimulated, LPS-simulated), as well as the continuous variables time and BMI as indicated. A random-effect for patient was equally included (random by-subject intercepts, fixed slopes). Models were computed using the R “Ime4” and “gamm4” packages. • Individual models were visually assessed for the presence of heteroscedasticity, collinearity and normality of residuals. […] For visual representation, log-transformed outcome values were back-transformed to their initial values.

[2] = tested on: patients after bariatric surgery with post-prandial hypoglycaemia; assay: Mixed-meal test: insulin, c-peptide, GLP-1, glucagon, insulin secretion and sensitivity indices; conditions: for insulin AUC, estimate vs placebo: FIG. 5e; for insulin AUC, estimate vs placebo / c-peptide, estimate vs placebo / insulin, estimate vs placebo / insulin secretion index, effect estimate vs placebo: linear mixed effect model; for c-peptide, estimate vs placebo: FIG. 5f; for c-peptide, estimate vs placebo / insulin, estimate vs placebo: log-transformed outcome; for insulin, estimate vs placebo: FIG. 5d; for insulin secretion index, effect estimate vs placebo: placebo average 108.0 pmol/mmol; for Whole body insulin sensitivity index / Insulin secretion index: median, n=12; for Whole body insulin sensitivity index: placebo 38.0, single dose before mixed meal; for Insulin secretion index: placebo 104.6, single 10 mg empagliflozin oral 2 h or 100 mg anakinra s.c. 3 h before mixed meal; for insulin secretion / insulin release and c-peptide secretion over time: vs placebo
Text: (§4) The 12 subjects were randomly assigned into six groups consisting of two subjects receiving study medication in a double-blind, crossed-over manner as outlined in FIG. 2. Patients need to be sober at least eight hours before ingestion of mixed-meal. To ensure that fasting period is not too long, patients receive a small late evening meal consisting of 4 DarVida Natural Crackers as well as 3 Sinergy® drops (see Appendix for specific contents) or are alternatively pleased to have their dinner at around 10 pm. Treatment consists of a single subcutaneous injection of 100 mg Anakinra (Kineret®) or matched placebo three hours before ingestion of the mixed-meal and of a single oral tablet of 10 mg of empagliflozin (Jardiance®) or matched placebo two hours before mixed-meal at each study day. Patients were randomised to receive in different sequences either (1) anakinra and an oral placebo to empagliflozin, (2) empagliflozin and a subcutaneous placebo (0.67 ml 0.9% saline) to anakinra or (3) double placebo. Participants, investigators and study nurses were blinded to the study drug.
as §2
Insulin secretion was measured using standard insulin ELISA.
as §3
Treatment effects are presented in Table 6 as mean effect size estimates with 95% CIs, test-statistics and multiple comparison adjusted p-values (=FDR values). • Missing values for insulin (n=1), GLP-1 (n=4) and glucagon (n=5) were assumed to be missing at random and imputed using multiple imputation with the R-package “mice”. Inferential statistical analyses were done using R version 3.5.2. Descriptive statistics were done with GraphPad Prism8 version 8.0.1(145). […]

[3] = tested on: patients after bariatric surgery with post-prandial hypoglycaemia; assay: Liquid mixed-meal test after single dose: plasma glucose and glucose-requiring hypoglycaemic events; conditions: for number of events (hypoglycemia requiring glucose rescue), estimate vs placebo: FIG. 5b, generalized linear additive mixed effect model; for glucose, estimate vs placebo: FIG. 5c, linear mixed effect model; for severity of hypoglycemic events / events requiring rescue glucose administration: pre-treatment vs placebo (7 of 12 patients on placebo), p=0.037; for glucose-requiring hypoglycaemic events (%): single dose before mixed meal, placebo 61.5%
Protocol: This study is a placebo controlled, double-blind, randomized, cross-over proof-of-concept study. The study consists of a screening visit and three study dates that need to have a minimum interval between the dates of four days and maximum of two weeks. Ideally, all three study dates are performed within 14 days allowing the usage of one single flash glucose monitoring system sensor (Freestyle Libre®, Abbott) for the entire period. The screening visit is about 90 min. Each study day lasts 6.5 hours and consists of the same schedule. If the subject agrees to use a glucose flash monitoring system, the sensor is installed the afternoon before study day 1 and the subject is instructed in the use of the system.
as §4
Between the study drug application questionnaires concerning dumping symptoms were answered. Regular measurement of vital parameters, blood samples and hypoglycaemia assessments were performed as outlined in FIG. 1. After ingestion of the liquid mixed-meal subjects had to rest in supine position (at least 45°). One subject was not able to ingest the full specified liquid mixed meal (carbohydrate load of 40 g instead of 60 g) on the first study day and thereafter received the same portion of liquid mixed meal on subsequent study days.
In case of symptomatic hypoglycaemia before the prespecified next laboratory control immediate glucose measurements with Freestyle Libre® and POCT respectively were performed and in case of hypoglycemic values (<3.0 mmol/l) laboratory samples were drawn and glucose (10 g) was given intravenously. Samples were named according to the exact timepoint and the following pre-specified samples were taken according to the study schedule. If patients were not symptomatic glucose (10 g) was given intravenously only in case of POCT glucose values below 2.5 mmol/l.
Blood glucose measurements regularly took place and an inserted catheter in case of hypoglycaemia was adjusted at the beginning of each study date. In case of a symptomatic decrease of blood glucose levels in symptomatic patients below 2.5 mmol/l, counter-regulatory actions (e.g. 100 ml of 10% glucose) were initiated after taking the blood sample panel.
as §1
At each study day the same schedule took place. […]

OC[C@H]1O[C@@H](c2ccc(Cl)c(Cc3ccc(O[C@H]4CCOC4)cc3)c2)[C@H](O)[C@@H](O)[C@@H]1O [empagliflozin]
Edinburgh Hypoglycemia Scale score, timepoint 0 min [1]: 0 | Edinburgh Hypoglycemia Scale score, timepoint 60 min [1]: 0 | Edinburgh Hypoglycemia Scale score, timepoint 90 min [1]: 0 | Edinburgh Hypoglycemia Scale score, timepoint 120 min [1]: 0 | Edinburgh Hypoglycemia Scale score, timepoint 150 min [1]: 0 | Edinburgh Hypoglycemia Scale score, timepoint 180 min [1]: 0 | model coefficient (treatment vs placebo) for occurrence of Edinburgh composite score ≥6 [1]: −2.429 | Edinburgh Hypoglycemia Scale score, timepoint −120 min [1]: 0 | insulin AUC, estimate vs placebo [2]: −19.32 | c-peptide, estimate vs placebo [2]: −0.2237 | insulin, estimate vs placebo [2]: −0.852 | insulin secretion index, effect estimate vs placebo [2]: −10.8 pmol/mmol | Whole body insulin sensitivity index [2]: 84.6 | Insulin secretion index [2]: 99.2 | insulin secretion / insulin release and c-peptide secretion over time [2]: reduced | glycaemia 30 minutes after ingestion of the mixed meal ([3]; 30 min, 10 mg empagliflozin, the other value is placebo): 10.1 mmol/L | glycaemia 60 minutes after ingestion of the mixed meal ([3]; 60 min, 10 mg empagliflozin, the other value is placebo): 6.9 mmol/L | glycaemia 90 minutes after ingestion of the mixed meal ([3]; 90 min, 10 mg empagliflozin, the other value is placebo): 3.5 | number of events (hypoglycemia requiring glucose rescue), estimate vs placebo [3]: −2.882 | glucose, estimate vs placebo [3]: −0.472 | severity of hypoglycemic events / events requiring rescue glucose administration [3]: significantly reduced the severity of hypoglycemic events with only two events requiring rescue glucose administration | glucose-requiring hypoglycaemic events (%) [3]: 16.6% | peak postprandial glucose levels ([3]; vs placebo): reduced

anakinra: CAS NO 143090-92-0; recombinant, non-glycosylated form of the human interleukin-1 receptor antagonist (IL-1 Ra), 153 amino acids
Edinburgh Hypoglycemia Scale score, timepoint 0 min [1]: 0 | Edinburgh Hypoglycemia Scale score, timepoint 60 min [1]: 0 | Edinburgh Hypoglycemia Scale score, timepoint 90 min [1]: 0 | Edinburgh Hypoglycemia Scale score, timepoint 120 min [1]: 0 | Edinburgh Hypoglycemia Scale score, timepoint 150 min [1]: 0 | Edinburgh Hypoglycemia Scale score, timepoint 180 min [1]: 0 | model coefficient (treatment vs placebo) for occurrence of Edinburgh composite score ≥6 [1]: −2.429 | Edinburgh Hypoglycemia Scale score, timepoint −120 min [1]: 0 | insulin AUC, estimate vs placebo [2]: −13.9 | c-peptide, estimate vs placebo [2]: −0.0912 | insulin, estimate vs placebo [2]: −0.266 | insulin secretion index, effect estimate vs placebo [2]: −18.5 pmol/mmol | Whole body insulin sensitivity index [2]: 72.1 | Insulin secretion index [2]: 91.6 | insulin secretion / insulin release and c-peptide secretion over time [2]: reduced | number of events (hypoglycemia requiring glucose rescue), estimate vs placebo [3]: −2.882 | glucose, estimate vs placebo [3]: 0.133 | severity of hypoglycemic events / events requiring rescue glucose administration [3]: significantly reduced the severity of hypoglycemic events with only two events requiring rescue glucose administration | glucose-requiring hypoglycaemic events (%) [3]: 16.6% | changes of the glucose curve within the first 90 minutes ([3]; vs placebo): did not result in significant changes
